Assay results reported in patent US8076487B2, “Pyridone derivative and herbicide” (Kumiai Chemical Industry Co., Ltd., priority 2006, dated 2011).

Experiments:
Format in all cases: in vivo
[1] = tested on: Japanese bulrush (Scirpus juncoides Roxb.); experiment: Test Example 1: herbicidal effect by soil application to paddy field; conditions: paddy field soil application; active ingredient 1,000 g per 1 hectare; wettable powder added dropwise to water surface the day after sowing; examined on the 21st day after application
In short: (§1)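 Under greenhouse conditions, seeds sown on puddled paddy soil in 100 cm2 pots under 3 cm of standing water received the test compound; injury was assessed with a standard scoring scheme three weeks (day 21) after treatment.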

[2] = tested on: early watergrass (Echinochloa oryzicola Vasing); experiment: as above; conditions: paddy field soil application; active ingredient 1,000 g per 1 hectare; wettable powder added dropwise to water surface the day after sowing; examined on the 21st day after application
In short: as §1

[3] = tested on: heartshape false pickerelweed (Monochoria vaginalis (Burm.f.) C.Presl); experiment: as above; conditions: paddy field soil application; active ingredient 1,000 g per 1 hectare; wettable powder added dropwise to water surface the day after sowing; examined on the 21st day after application
In short: as §1

[4] = tested on: barnyardgrass (Echinochloa crus-galli (L.) P. Beauv. var. crus-galli); experiment: Test Example 2: herbicidal effect by soil application to upland field; conditions: soil surface spray, upland field soil, 1,000 g active ingredient per hectare, 21st day after application
In short: (§2)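 Herbicidal activity was graded on a standard scale on day 21 after soil application. The covered, freshly sown pots of field soil received an aqueous wettable-powder spray delivering 1,000 g active ingredient/ha at 1,000 liters/ha and were kept in a greenhouse.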

[5] = tested on: green foxtail (Setaria viridis (L.) P. Beauv.); experiment: as above; conditions: soil surface spray, upland field soil, 1,000 g active ingredient per hectare, 21st day after application
In short: as §2

[6] = tested on: slender amaranth (Amaranthus viridis L.); experiment: as above; conditions: soil surface spray, upland field soil, 1,000 g active ingredient per hectare, 21st day after application
In short: as §2

[7] = tested on: velvetleaf (Abutilon theophrasti medicus); experiment: as above; conditions: soil surface spray, upland field soil, 1,000 g active ingredient per hectare, 21st day after application
In short: as §2

[8] = tested on: barnyardgrass (Echinochloa crus-galli (L.) P. Beauv. var. crus-galli); experiment: Test Example 3: herbicidal effect by application to upland field (foliage treatment); conditions: 14th day after application; for herbicidal effect, Barnyardgrass: foliage treatment, 1,000 g active ingredient per 1 hectare, greenhouse; for herbicidal effect (index), Barnyardgrass: foliage treatment, plants grown two weeks, 1,000 g active ingredient per hectare
In short: (§3)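 Foliage treatment, greenhouse: 2-week-old plants in field soil; wettable powder in water sprayed over the top at 1,000 g a.i./ha (1,000 L/ha); rating on day 14 post-application.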

[9] = tested on: green foxtail (Setaria viridis (L.) P. Beauv.); experiment: as above; conditions: 14th day after application; for herbicidal effect, Green Foxtail: foliage treatment, 1,000 g active ingredient per 1 hectare, greenhouse; for herbicidal effect (index), Green Foxtail: foliage treatment, plants grown two weeks, 1,000 g active ingredient per hectare
In short: as §3

[10] = tested on: slender amaranth (Amaranthus viridis L.); experiment: as above; conditions: 14th day after application; for herbicidal effect, Slender Amaranth: foliage treatment, 1,000 g active ingredient per 1 hectare, greenhouse; for herbicidal effect (index), Slender Amaranth: foliage treatment, plants grown two weeks, 1,000 g active ingredient per hectare
In short: as §3

[11] = tested on: velvetleaf (Abutilon theophrasti medicus); experiment: as above; conditions: 14th day after application; for herbicidal effect, Velvetleaf: foliage treatment, 1,000 g active ingredient per 1 hectare, greenhouse; for herbicidal effect (index), Velvetleaf: foliage treatment, plants grown two weeks, 1,000 g active ingredient per hectare
In short: as §3

Compound | herbicidal effect, Scirpus juncoides Roxb. [1] | herbicidal effect, Echinochloa oryzicola Vasing [2] | herbicidal effect, Monochoria vaginalis (Burm. f.) C. Presl [3] | herbicidal effect (index), Barnyardgrass [4] | herbicidal effect (index), Green Foxtail [5] | herbicidal effect (index), Slender Amaranth [6] | herbicidal effect (index), Velvetleaf [7] | herbicidal effect, Barnyardgrass [8] | herbicidal effect, Green Foxtail [9] | herbicidal effect, Slender Amaranth [10] | herbicidal effect, Velvetleaf [11] | herbicidal effect (index), Barnyardgrass [8] | herbicidal effect (index), Green Foxtail [9] | herbicidal effect (index), Slender Amaranth [10] | herbicidal effect (index), Velvetleaf [11]
Cn1ncc(C(=O)c2ccc(C(F)(F)F)n(CC3OCCO3)c2=O)c1O [IV-119] | 5 (90% or more of herbicidal effect and crop phytotoxicity) | 5 (90% or more of herbicidal effect and crop phytotoxicity) | 5 (90% or more of herbicidal effect and crop phytotoxicity) | 5 (90% or more of herbicidal effect and crop phytotoxicity) | 5 (90% or more of herbicidal effect and crop phytotoxicity) | 5 (90% or more of herbicidal effect and crop phytotoxicity) | 5 (90% or more of herbicidal effect and crop phytotoxicity) | 5 (90% or more of herbicidal effect and crop phytotoxicity) | 4 (70 to less than 90% of herbicidal effect and crop phytotoxicity) | 5 (90% or more of herbicidal effect and crop phytotoxicity) | 4 (70 to less than 90% of herbicidal effect and crop phytotoxicity) |  |  |  | 
COCCn1c(C(F)(F)F)ccc(C(=O)c2cnn(C)c2O)c1=O [IV-33] | 5 (90% or more of herbicidal effect and crop phytotoxicity) | 5 (90% or more of herbicidal effect and crop phytotoxicity) | 5 (90% or more of herbicidal effect and crop phytotoxicity) | 5 (90% or more of herbicidal effect and crop phytotoxicity) | 5 (90% or more of herbicidal effect and crop phytotoxicity) | 5 (90% or more of herbicidal effect and crop phytotoxicity) | 5 (90% or more of herbicidal effect and crop phytotoxicity) | 5 (90% or more of herbicidal effect and crop phytotoxicity) | 5 (90% or more of herbicidal effect and crop phytotoxicity) | 5 (90% or more of herbicidal effect and crop phytotoxicity) | 5 (90% or more of herbicidal effect and crop phytotoxicity) |  |  |  | 
O=C(C1=C(O)C2CCC(C2)C1=O)c1ccc(C(F)(F)F)n(-c2ccccc2)c1=O (centres unmarked) [III-34] | 5 (90% or more of herbicidal effect and crop phytotoxicity) | 5 (90% or more of herbicidal effect and crop phytotoxicity) | 5 (90% or more of herbicidal effect and crop phytotoxicity) | 5 (90% or more of herbicidal effect and crop phytotoxicity) | 5 (90% or more of herbicidal effect and crop phytotoxicity) | 5 (90% or more of herbicidal effect and crop phytotoxicity) | 5 (90% or more of herbicidal effect and crop phytotoxicity) | 5 (90% or more of herbicidal effect and crop phytotoxicity) | 5 (90% or more of herbicidal effect and crop phytotoxicity) | 5 (90% or more of herbicidal effect and crop phytotoxicity) | 5 (90% or more of herbicidal effect and crop phytotoxicity) |  |  |  | 
Cc1ccc(-n2c(C(F)(F)F)ccc(C(=O)C3=C(O)C4CCC(C4)C3=O)c2=O)cc1 (centres unmarked) [III-35] | 5 (90% or more of herbicidal effect and crop phytotoxicity) | 5 (90% or more of herbicidal effect and crop phytotoxicity) | 5 (90% or more of herbicidal effect and crop phytotoxicity) | 5 (90% or more of herbicidal effect and crop phytotoxicity) | 5 (90% or more of herbicidal effect and crop phytotoxicity) | 5 (90% or more of herbicidal effect and crop phytotoxicity) | 5 (90% or more of herbicidal effect and crop phytotoxicity) | 5 (90% or more of herbicidal effect and crop phytotoxicity) | 5 (90% or more of herbicidal effect and crop phytotoxicity) | 5 (90% or more of herbicidal effect and crop phytotoxicity) | 5 (90% or more of herbicidal effect and crop phytotoxicity) |  |  |  | 
O=C1CCCC(O)=C1C(=O)c1ccc(C(F)(F)F)n(-c2cc([N+](=O)[O-])ccc2F)c1=O [I-107] | 5 (90% or more of herbicidal effect and crop phytotoxicity) | 5 (90% or more of herbicidal effect and crop phytotoxicity) | 5 (90% or more of herbicidal effect and crop phytotoxicity) | 5 (90% or more of herbicidal effect and crop phytotoxicity) | 5 (90% or more of herbicidal effect and crop phytotoxicity) | 5 (90% or more of herbicidal effect and crop phytotoxicity) | 5 (90% or more of herbicidal effect and crop phytotoxicity) |  |  |  |  | 5 (90% or more of herbicidal effect and crop phytotoxicity) | 3 (50 to less than 70% of herbicidal effect and crop phytotoxicity) | 5 (90% or more of herbicidal effect and crop phytotoxicity) | 5 (90% or more of herbicidal effect and crop phytotoxicity)
CS(=O)(=O)CCCn1c(C(F)(F)F)ccc(C(=O)C2=C(O)CCCC2=O)c1=O [I-71] | 5 (90% or more of herbicidal effect and crop phytotoxicity) | 5 (90% or more of herbicidal effect and crop phytotoxicity) | 5 (90% or more of herbicidal effect and crop phytotoxicity) | 5 (90% or more of herbicidal effect and crop phytotoxicity) | 5 (90% or more of herbicidal effect and crop phytotoxicity) | 5 (90% or more of herbicidal effect and crop phytotoxicity) | 5 (90% or more of herbicidal effect and crop phytotoxicity) |  |  |  |  | 5 (90% or more of herbicidal effect and crop phytotoxicity) | 5 (90% or more of herbicidal effect and crop phytotoxicity) | 5 (90% or more of herbicidal effect and crop phytotoxicity) | 5 (90% or more of herbicidal effect and crop phytotoxicity)
CCn1ncc(C(=O)c2ccc(C(F)(F)F)n(CC3CCCO3)c2=O)c1O (centres unmarked) [IV-205] | 5 (90% or more of herbicidal effect and crop phytotoxicity) | 5 (90% or more of herbicidal effect and crop phytotoxicity) | 5 (90% or more of herbicidal effect and crop phytotoxicity) | 5 (90% or more of herbicidal effect and crop phytotoxicity) | 5 (90% or more of herbicidal effect and crop phytotoxicity) | 5 (90% or more of herbicidal effect and crop phytotoxicity) | 5 (90% or more of herbicidal effect and crop phytotoxicity) | 5 (90% or more of herbicidal effect and crop phytotoxicity) | 5 (90% or more of herbicidal effect and crop phytotoxicity) | 5 (90% or more of herbicidal effect and crop phytotoxicity) | 5 (90% or more of herbicidal effect and crop phytotoxicity) |  |  |  | 
